Calls of active or inactive are those of the source.
Assays:
[1] = biological target: Latent membrane protein 1 (Human herpesvirus 4 (strain B95-8), UniProt P03230); assay: LMP1 TES1 pathway selectivity over dsRED control – imaging, HEK293T, dual-color eGFP/dsRED, cherry-picks, selectivity assay for LMP1 NF-kB inhibitor project, dose response (AID 588398); assay type: functional, cell-based
HEK293 = assay: EBV LMP1 TES2 canonical NF-kB signalling blockers – cell-based, HEK293, luciferase, cherry-pick, dose response (AID 588343); assay type: functional; details: Homo sapiens
[2] = biological target: T1, Sentrin-specific protease 7 (Homo sapiens, UniProt Q9BQF6); assay: inhibition of human SENP7 cleavage activity – biochemical, luminescence, set 2, SAR follow-up (AID 588600); assay type: functional
T1 sequence (Q9BQF6 whole entry): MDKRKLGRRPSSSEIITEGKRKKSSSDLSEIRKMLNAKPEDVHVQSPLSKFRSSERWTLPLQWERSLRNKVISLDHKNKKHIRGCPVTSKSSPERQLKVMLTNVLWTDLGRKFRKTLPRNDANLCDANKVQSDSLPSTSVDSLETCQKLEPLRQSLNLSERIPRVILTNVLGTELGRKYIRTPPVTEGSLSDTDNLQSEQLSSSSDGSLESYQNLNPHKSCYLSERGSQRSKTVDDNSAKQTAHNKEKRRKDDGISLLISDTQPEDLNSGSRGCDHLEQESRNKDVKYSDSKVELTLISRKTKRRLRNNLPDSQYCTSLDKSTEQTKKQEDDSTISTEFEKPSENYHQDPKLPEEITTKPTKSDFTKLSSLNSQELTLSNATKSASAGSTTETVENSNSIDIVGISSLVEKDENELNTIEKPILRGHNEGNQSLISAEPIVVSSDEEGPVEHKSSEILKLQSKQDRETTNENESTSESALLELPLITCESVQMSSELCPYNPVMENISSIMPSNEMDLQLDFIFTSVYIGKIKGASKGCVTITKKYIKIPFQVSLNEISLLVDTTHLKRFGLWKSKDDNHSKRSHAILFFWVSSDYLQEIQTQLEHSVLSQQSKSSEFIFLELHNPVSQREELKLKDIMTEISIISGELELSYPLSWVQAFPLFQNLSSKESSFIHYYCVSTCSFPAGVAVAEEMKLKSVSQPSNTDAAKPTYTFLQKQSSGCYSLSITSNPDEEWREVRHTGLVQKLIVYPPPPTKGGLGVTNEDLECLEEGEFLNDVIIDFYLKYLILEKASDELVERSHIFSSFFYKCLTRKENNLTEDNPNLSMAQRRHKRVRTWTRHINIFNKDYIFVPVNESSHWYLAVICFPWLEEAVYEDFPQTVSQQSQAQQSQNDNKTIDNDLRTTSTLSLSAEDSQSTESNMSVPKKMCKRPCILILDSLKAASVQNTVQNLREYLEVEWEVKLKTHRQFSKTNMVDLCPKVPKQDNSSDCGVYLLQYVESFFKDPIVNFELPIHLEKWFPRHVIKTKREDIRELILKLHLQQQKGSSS

[3] = biological target: T2, Sentrin-specific protease 8 (Homo sapiens, UniProt Q96LD8); assay: inhibition of sentrin protease 8 – biochemical, luminescence, set 2, SAR follow-up (AID 588601); assay type: functional
T2 sequence (Q96LD8 whole entry): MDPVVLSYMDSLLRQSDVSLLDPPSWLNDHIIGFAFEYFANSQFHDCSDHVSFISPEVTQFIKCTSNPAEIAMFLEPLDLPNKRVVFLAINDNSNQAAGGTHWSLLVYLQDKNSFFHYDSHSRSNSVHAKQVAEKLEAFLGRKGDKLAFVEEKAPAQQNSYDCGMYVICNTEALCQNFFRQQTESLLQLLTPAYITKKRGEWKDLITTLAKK

Caspase-3 = biological target: T3, Caspase-3 (Homo sapiens, UniProt P42574); assay: inhibition of recombinant caspase-3 activity – biochemical, luminescence, set 2, selectivity assay for SENP protease inhibitor project, SAR follow-up (AID 588599); assay type: functional
T3 sequence (P42574 whole entry): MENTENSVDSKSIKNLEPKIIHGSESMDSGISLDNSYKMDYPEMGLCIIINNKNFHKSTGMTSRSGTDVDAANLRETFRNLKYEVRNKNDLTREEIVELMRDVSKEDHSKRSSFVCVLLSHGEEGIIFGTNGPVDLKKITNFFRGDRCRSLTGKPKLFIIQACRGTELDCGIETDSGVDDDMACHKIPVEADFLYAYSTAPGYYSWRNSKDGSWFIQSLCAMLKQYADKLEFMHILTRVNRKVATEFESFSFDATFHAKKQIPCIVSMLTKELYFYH

[4] = biological target: T4, Sentrin-specific protease 6 (Homo sapiens, UniProt Q9GZR1); assay: inhibition of human SENP6 catalytic domain – biochemical, luminescence, set 2, SAR follow-up (AID 588598); assay type: functional
T4 sequence (Q9GZR1 whole entry): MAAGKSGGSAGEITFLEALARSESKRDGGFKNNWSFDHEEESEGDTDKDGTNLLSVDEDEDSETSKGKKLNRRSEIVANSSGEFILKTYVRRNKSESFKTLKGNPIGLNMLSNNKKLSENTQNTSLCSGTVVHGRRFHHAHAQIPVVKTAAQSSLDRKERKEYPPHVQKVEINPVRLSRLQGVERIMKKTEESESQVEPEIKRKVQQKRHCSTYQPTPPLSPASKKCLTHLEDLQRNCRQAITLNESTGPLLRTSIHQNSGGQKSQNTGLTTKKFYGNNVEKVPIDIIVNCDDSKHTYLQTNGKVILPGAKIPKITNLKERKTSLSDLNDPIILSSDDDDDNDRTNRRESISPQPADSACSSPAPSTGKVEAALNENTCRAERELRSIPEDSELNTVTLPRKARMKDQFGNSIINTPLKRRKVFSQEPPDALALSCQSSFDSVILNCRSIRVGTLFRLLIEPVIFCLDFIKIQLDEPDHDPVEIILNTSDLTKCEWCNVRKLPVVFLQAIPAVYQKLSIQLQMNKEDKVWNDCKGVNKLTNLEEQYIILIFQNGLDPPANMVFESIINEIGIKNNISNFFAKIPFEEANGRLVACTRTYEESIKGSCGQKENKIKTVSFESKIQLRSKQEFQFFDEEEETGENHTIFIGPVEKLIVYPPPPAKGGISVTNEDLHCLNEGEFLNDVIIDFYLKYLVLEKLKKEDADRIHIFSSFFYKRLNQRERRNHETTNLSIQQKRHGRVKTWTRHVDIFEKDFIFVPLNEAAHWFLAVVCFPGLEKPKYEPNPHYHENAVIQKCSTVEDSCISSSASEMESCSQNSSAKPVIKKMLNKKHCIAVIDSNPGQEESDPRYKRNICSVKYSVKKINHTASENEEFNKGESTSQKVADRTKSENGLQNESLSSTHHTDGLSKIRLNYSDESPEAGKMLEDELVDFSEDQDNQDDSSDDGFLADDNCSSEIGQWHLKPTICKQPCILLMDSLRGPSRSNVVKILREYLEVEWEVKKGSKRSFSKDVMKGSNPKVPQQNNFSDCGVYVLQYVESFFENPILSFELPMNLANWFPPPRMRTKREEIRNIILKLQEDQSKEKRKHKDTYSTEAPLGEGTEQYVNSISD

[5] = biological target: T5, Glycogen synthase kinase-3 beta (Homo sapiens, UniProt P49841); assay: Inhibition of Human GSK-3 beta Activity Measured in Biochemical System Using Microfluidics - 2063-05_Inhibitor_Dose_DryPowder_Activity_Set2. [Related pubchem assays (depositor defined):AID2709]
[6] = biological target: Glycogen synthase kinase-3 alpha (Homo sapiens, UniProt P49840); assay: Inhibition of Human GSK-3 alpha Activity Measured in Biochemical System Using Microfluidics - 2063-06_Inhibitor_Dose_DryPowder_Activity_Set2. [Related pubchem assays (depositor defined):AID2709]
Candida albicans [7] = assay: resistant Candida growth with fluconazole co-treatment – CaCi-8 strain, Alamar Blue, dry powder, set 3, dose response (AID 488905); assay type: functional, organism-based
Candida albicans [8] = assay: Candida growth inhibition combined with fluconazole – CaCi-2 strain, Alamar Blue, dry powder, set 3, dose response (AID 488907); assay type: functional, organism-based
[9] = biological target: Mitogen-activated protein kinase 8 (Homo sapiens, UniProt P45983); assay type: functional;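 further: value comes from one member of a kinome-wide kinase profiling panel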
[10] = biological target: Cyclin-dependent kinase 5 (Homo sapiens, UniProt Q00535); assay type: functional;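 further: CDK5 measured as one member of a kinase profiling panel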
[11] = biological target: Dual specificity protein kinase CLK4 (Homo sapiens, UniProt Q9HAZ1); assay type: functional
[12] = biological target: Platelet-derived growth factor receptor alpha (Homo sapiens, UniProt P16234); assay: Navigating the Kinome. Panel member name: PDGFRA; assay type: functional
[13] = Vero cell cytotoxicity, cytotoxicity control for M. tuberculosis inhibitor project, purified and synthesized samples, set 3 (AID 504684); assay type: functional
[14] = A Cell Based Secondary Assay to Explore Cytotoxicity in HepG2 Cells of Compounds that Modulate Mycobacterium tuberculosis in Media Containing Glycerol versus Media without Glycerol (2).; assay type: functional
[15] = A Cell Based Secondary Assay to Explore Cytotoxicity in THP-1 Cells of Compounds that Modulate Mycobacterium tuberculosis in Media Containing Glycerol versus Media without Glycerol (2).; assay type: functional
[16] = Luminescence Cell-Based Dose Retest to Confirm Inhibitors of Cancer Stem Cells. [Related pubchem assays (depositor defined):AID2717, AID2721]; assay type: functional; details: Homo sapiens
[17] = biological target: T5, Glycogen synthase kinase-3 beta; assay type: functional
[18] = biological target: Cell division cycle 7-related protein kinase (Homo sapiens, UniProt O00311); assay type: functional;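 further: value obtained from a kinome-wide kinase panel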
[19] = biological target: cAMP-dependent protein kinase catalytic subunit alpha (Homo sapiens, UniProt P17612); assay type: functional
[20] = biological target: Mitogen-activated protein kinase kinase kinase kinase 4 (Homo sapiens, UniProt O95819); assay type: functional
[21] = biological target: Serine/threonine-protein kinase pim-1 (Homo sapiens, UniProt P11309); assay type: functional
[22] = biological target: Homeodomain-interacting protein kinase 2 (Homo sapiens, UniProt Q9H2X6); assay type: functional;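 further: measured within a kinome-wide kinase profiling panel, HIPK2 being one panel member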
[23] = biological target: Interleukin-1 receptor-associated kinase 4 (Homo sapiens, UniProt Q9NWZ3); assay type: functional
INS1 [24] = assay: suppression of NO production in INS-1E cells – cell-based, Griess absorbance, dry powder, set 2, dose response (AID 488868); assay type: functional; details: Rattus norvegicus
INS1 [25] = assay: suppression of cytokine-induced beta-cell apoptosis – INS-1E, caspase luminescence, dry powder, beta-cell apoptosis inhibitor project, dose response (AID 488848); assay type: functional, cell-based; details: Rattus norvegicus
INS1 [26] = assay: INS-1E mitochondrial potential rescue under cytokines – cell-based, JC-1 fluorescence ratio, dry powder, dose response (AID 488931); assay type: functional; details: Rattus norvegicus
INS1 [27] = assay: beta-cell survival under cytokine stress – INS-1E, ATP luminescence, dry powder, dose response (AID 488844); assay type: functional, cell-based; details: Rattus norvegicus
Aurora kinase A = Aurora kinase A (Homo sapiens, UniProt O14965); assay type: functional;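 further: value from the Navigating the Kinome kinase panel profiling, panel entry STK6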
[28] = biological target: Dual specificity tyrosine-phosphorylation-regulated kinase 1A (Homo sapiens, UniProt Q13627); assay type: functional;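 further: measured against DYRK1A as one member of a broad kinome profiling panel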
[29] = biological target: Protein kinase C theta type (Homo sapiens, UniProt Q04759); assay: Navigating the Kinome. Panel member name: PRKCQ; assay type: functional
[30] = biological target: Cyclin-dependent kinase 19 (Homo sapiens, UniProt Q9BWU1); assay: Navigating the Kinome. Panel member name: CDC2L6; assay type: functional
[31] = biological target: Cyclin-dependent kinase 9 (Homo sapiens, UniProt P50750); assay type: functional;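 further: value from the CDK9 entry of a kinome-spanning kinase panel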
[32] = biological target: Macrophage colony-stimulating factor 1 receptor (Homo sapiens, UniProt P07333); assay type: functional;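 further: value comes from the Navigating the Kinome screening panel, CSF1R member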
[33] = biological target: Dual specificity mitogen-activated protein kinase kinase 1 (Homo sapiens, UniProt Q02750); assay: Navigating the Kinome. Panel member name: MAP2K1; assay type: functional
[34] = biological target: Vascular endothelial growth factor receptor 2 (Homo sapiens, UniProt P35968); assay type: functional
[35] = biological target: Dual specificity tyrosine-phosphorylation-regulated kinase 1B (Homo sapiens, UniProt Q9Y463); assay: Navigating the Kinome. Panel member name: DYRK1B; assay type: functional
[36] = biological target: Tyrosine-protein kinase receptor TYRO3 (Homo sapiens, UniProt Q06418); assay type: functional;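 further: TYRO3 value obtained as one member of a kinome-wide profiling panel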
[37] = biological target: Proto-oncogene tyrosine-protein kinase receptor Ret (Homo sapiens, UniProt P07949); assay type: functional;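 further: measured within a kinome-wide profiling panel, RET as the panel member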

Dual specificity protein kinase CLK4, sequence (Q9HAZ1 whole entry): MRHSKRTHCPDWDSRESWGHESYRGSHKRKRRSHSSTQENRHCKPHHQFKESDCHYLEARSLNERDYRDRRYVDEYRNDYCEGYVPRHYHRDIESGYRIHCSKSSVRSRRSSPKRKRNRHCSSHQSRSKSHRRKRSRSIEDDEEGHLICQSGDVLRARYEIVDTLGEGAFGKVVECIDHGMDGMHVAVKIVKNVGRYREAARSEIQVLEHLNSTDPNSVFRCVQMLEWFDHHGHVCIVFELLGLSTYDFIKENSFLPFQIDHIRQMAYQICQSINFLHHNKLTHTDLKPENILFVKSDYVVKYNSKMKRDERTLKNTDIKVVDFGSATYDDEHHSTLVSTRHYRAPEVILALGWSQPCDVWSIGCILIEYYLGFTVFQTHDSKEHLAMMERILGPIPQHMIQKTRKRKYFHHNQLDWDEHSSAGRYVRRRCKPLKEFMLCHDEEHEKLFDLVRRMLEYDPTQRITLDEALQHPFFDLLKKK
T5 sequence (P49841 whole entry): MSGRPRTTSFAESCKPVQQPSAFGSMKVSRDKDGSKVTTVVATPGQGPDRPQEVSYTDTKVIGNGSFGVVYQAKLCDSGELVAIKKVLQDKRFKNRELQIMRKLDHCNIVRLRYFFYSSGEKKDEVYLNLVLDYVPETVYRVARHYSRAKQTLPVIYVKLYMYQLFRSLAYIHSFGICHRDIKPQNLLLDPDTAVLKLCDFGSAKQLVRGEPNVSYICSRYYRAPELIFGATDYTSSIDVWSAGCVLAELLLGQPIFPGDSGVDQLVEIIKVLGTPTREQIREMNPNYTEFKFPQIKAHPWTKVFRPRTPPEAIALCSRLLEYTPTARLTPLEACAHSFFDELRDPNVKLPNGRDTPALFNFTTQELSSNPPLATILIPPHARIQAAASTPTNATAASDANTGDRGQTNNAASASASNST
Dual specificity tyrosine-phosphorylation-regulated kinase 1B, sequence (Q9Y463 whole entry): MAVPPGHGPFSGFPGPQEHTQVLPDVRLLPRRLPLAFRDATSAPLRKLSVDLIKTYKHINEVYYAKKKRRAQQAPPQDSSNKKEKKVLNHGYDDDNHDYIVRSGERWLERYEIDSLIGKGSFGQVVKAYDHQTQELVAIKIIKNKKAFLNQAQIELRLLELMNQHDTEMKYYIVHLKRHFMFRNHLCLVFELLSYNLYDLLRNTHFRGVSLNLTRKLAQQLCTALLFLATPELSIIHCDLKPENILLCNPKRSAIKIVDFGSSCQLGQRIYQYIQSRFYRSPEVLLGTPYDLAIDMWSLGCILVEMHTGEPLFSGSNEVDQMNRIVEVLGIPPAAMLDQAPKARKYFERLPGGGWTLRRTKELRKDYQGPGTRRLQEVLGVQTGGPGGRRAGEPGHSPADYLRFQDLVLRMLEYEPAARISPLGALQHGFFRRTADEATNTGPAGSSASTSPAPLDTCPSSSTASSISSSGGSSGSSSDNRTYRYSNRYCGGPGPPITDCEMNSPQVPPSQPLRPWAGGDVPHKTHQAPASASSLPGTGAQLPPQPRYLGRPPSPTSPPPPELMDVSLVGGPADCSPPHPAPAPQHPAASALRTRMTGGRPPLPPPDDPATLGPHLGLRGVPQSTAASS
Tyrosine-protein kinase receptor TYRO3, sequence (Q06418 whole entry): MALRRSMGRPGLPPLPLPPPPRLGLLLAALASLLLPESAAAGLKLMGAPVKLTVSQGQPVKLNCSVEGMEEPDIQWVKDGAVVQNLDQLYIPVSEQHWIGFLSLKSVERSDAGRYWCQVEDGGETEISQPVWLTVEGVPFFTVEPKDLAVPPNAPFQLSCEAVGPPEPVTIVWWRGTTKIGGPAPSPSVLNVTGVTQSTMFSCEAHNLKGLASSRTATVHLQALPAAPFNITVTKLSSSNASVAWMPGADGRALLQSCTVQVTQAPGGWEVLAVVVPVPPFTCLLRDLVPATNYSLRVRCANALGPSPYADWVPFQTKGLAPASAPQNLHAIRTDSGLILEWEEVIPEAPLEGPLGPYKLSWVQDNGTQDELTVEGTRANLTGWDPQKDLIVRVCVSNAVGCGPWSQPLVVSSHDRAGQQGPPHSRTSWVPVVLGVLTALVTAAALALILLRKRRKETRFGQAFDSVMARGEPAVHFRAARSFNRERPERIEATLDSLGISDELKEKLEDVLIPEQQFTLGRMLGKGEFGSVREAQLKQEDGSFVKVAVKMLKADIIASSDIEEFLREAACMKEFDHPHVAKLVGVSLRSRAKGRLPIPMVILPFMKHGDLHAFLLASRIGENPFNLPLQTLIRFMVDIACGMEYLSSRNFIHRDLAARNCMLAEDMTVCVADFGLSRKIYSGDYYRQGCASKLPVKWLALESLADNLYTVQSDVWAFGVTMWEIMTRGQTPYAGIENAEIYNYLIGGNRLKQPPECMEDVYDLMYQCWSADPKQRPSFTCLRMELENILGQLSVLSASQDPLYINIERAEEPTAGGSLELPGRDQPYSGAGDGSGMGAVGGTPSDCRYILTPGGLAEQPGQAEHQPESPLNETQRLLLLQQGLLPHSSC
Cell division cycle 7-related protein kinase, sequence (O00311 whole entry): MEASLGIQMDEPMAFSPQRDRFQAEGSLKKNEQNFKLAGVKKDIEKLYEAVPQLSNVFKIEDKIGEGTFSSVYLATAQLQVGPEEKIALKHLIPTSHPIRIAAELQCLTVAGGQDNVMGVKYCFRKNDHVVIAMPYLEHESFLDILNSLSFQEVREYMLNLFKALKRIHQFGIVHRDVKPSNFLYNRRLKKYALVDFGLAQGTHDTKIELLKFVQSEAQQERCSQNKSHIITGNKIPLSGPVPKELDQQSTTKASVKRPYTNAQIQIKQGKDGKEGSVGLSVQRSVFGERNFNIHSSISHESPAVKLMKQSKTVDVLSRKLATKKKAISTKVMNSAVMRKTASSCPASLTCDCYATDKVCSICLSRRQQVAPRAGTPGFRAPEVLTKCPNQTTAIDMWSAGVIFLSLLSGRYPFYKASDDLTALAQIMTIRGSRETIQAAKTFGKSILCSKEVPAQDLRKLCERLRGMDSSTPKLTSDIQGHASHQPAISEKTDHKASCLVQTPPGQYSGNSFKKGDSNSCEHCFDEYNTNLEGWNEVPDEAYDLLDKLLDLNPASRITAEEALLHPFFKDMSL
Cyclin-dependent kinase 19, sequence (Q9BWU1 whole entry): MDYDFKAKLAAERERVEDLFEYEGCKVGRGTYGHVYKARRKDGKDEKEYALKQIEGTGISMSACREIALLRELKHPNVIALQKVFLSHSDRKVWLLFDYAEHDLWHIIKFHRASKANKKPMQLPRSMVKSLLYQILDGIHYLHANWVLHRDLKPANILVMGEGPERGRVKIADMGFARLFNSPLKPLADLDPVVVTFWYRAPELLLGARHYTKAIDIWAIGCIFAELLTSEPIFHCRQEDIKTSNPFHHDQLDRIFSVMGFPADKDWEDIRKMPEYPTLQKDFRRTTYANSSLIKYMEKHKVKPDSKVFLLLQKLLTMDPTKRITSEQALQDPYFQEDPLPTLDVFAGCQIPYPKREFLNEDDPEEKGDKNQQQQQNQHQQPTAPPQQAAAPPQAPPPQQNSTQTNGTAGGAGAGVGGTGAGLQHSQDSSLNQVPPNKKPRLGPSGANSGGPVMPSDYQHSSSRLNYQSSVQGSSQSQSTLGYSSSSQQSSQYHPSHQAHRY
Cyclin-dependent kinase 5, sequence (Q00535 whole entry): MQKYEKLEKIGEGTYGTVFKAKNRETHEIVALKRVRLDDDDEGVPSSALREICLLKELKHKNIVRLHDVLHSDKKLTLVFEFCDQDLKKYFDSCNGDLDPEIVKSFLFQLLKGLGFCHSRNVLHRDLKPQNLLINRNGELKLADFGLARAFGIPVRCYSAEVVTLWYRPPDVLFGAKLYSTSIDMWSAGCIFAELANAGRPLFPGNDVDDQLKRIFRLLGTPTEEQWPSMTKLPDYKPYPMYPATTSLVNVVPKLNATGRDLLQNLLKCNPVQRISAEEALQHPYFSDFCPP
Macrophage colony-stimulating factor 1 receptor, sequence (P07333 whole entry): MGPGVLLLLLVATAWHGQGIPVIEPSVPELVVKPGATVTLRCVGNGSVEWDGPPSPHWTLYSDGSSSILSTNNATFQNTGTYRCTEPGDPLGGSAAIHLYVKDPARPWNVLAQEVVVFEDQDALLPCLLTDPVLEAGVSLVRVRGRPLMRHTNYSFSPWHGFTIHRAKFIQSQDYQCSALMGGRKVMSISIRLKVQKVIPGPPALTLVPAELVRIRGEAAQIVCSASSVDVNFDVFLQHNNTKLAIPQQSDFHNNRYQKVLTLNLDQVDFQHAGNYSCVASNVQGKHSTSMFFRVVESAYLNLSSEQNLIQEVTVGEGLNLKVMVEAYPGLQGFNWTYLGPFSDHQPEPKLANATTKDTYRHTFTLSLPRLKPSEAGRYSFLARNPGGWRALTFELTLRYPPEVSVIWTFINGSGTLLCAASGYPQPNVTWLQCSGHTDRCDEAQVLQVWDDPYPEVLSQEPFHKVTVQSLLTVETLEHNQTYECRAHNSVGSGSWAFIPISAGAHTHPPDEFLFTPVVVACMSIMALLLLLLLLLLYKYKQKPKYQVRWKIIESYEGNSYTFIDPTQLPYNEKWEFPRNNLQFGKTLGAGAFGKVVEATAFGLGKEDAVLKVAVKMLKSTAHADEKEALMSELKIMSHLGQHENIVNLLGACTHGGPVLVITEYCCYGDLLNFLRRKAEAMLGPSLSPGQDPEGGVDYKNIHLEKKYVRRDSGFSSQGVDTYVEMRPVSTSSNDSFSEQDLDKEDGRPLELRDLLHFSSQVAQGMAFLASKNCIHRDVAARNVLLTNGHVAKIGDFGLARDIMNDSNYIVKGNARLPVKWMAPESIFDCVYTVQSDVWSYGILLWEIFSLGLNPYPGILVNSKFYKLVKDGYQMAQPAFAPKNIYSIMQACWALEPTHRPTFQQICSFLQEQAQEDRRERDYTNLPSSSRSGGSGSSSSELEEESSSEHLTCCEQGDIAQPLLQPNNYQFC

c1ccc(C2c3[nH]c4ccccc4c3CCN2Cc2cccn2-c2ccccn2)nc1 (centres undefined)
AC50 [1]: 29.8 µM (active)
AC50 (HEK293): 110 µM (active)

COc1ccc(Br)c(C(=O)Nc2nc3ccc(C)cc3s2)c1
IC50 [2]: 2.13 µM (active)
IC50 [3]: 1.78 µM (active)
IC50 (Caspase-3): 3.57 µM (active)
IC50 [4]: 2.02 µM (active)

CN(C)Cc1c(C(=O)N/N=C/c2ccncc2)nnn1-c1nonc1N
AC50 [5]: 0.255 µM (active)
AC50 [6]: 0.597 µM (active)

O=C(c1cccc(Cl)c1)N1CCN(c2ccccn2)CC1
AC50 (Candida albicans [7]): < 0.195 µM (active)
AC50 (Candida albicans [8]): 0.073 µM (active)

Cc1[nH]c(=O)oc(=O)c1-c1ccccc1
Ki [9]: 79.4 µM (active)
Ki [10]: 63.1 µM (active)
Ki [11]: 20 µM (active)
Ki [12]: 63.1 µM (active)

S=c1[nH]cnc2nc[nH]c12 [MERCAPTOPURINE]
CC50 [13]: 76.5 µM (active)
CC50 [14]: 5.55 µM (active)
CC50 [15]: 30.4 µM (active)
AC50 [16]: 0.561 µM (active)

CCCCNc1cc(-c2ccncc2)cc2[nH]nc(N)c12
Ki [17]: 0.398 µM (active)
Ki [18]: 0.0126 µM (active)
Ki [19]: 0.398 µM (active)
Ki [20]: 0.316 µM (active)
Ki [21]: 2.51 µM (active)
Ki [22]: 0.398 µM (active)
Ki [11]: 0.00316 µM (active)
Ki [23]: 0.0794 µM (active)

Cc1ccc(S(=O)(=O)N(C)C[C@@H]2Oc3c(NC(=O)Nc4ccc(F)cc4)cccc3C(=O)N([C@@H](C)CO)C[C@H]2C)cc1
AC50 (INS1 [24]): 41 µM (active)
AC50 (INS1 [25]): 27.4 µM (active)
AC50 (INS1 [26]): 83.3 µM (active)
AC50 (INS1 [27]): 28.7 µM (active)

NC(=O)c1cnn2c(-c3ccccc3)ccnc12
Ki (Aurora kinase A): > 63.1 µM (inactive)
Ki [19]: > 50.1 µM (inactive)
Ki [28]: > 79.4 µM (inactive)
Ki [29]: > 100 µM (inactive)
Ki [30]: > 100 µM (inactive)
Ki [31]: > 63.1 µM (inactive)
Ki [32]: > 100 µM (inactive)
Ki [33]: 50.1 µM (active)
Ki [11]: 3.98 µM (active)
Ki [34]: > 100 µM (inactive)
Ki [35]: 15.8 µM (active)

O=C1NS(=O)(=O)c2cccc(Cl)c21
Ki [36]: 31.6 µM (active)
Ki [37]: 100 µM (active)
Ki [35]: 50.1 µM (active)

— ChEMBL document CHEMBL1201862, “PubChem BioAssay data set” (2004)
